# Legend:
# [1] = test system: bovine RPE-choroid complex; assay: Water transport across ex vivo bovine RPE-choroid complex in Ussing-type chamber; format: cell-based
# Experimental: The effect of DPOFA was examined in an ex vivo bovine RPE-choroid complex model.
# Ringer's solution contained 120 mM NaCl, 5 mM KCl, 23 mM NaHCO3, 1 mM MgCl2, 1.8 mM CaCl2, 2.0 mM taurine, and 10 mM glucose at pH 7.4. The osmolariy of the solution was 295±5 mOsM. The solution was placed in the cell culture incubator set at 37° C. with 5% CO2. The solution was kept in the incubator for at least 2 says before use. Glutathione at final concentration of 1 mM was added to solutions minutes before the use in water transport experiments.
# To prepare 5.5 ml of the 108 mM DPOFA stock solution, 220 mg of DPOFA was weighted. Four milliliters of water was added to the drug followed by addition of 104 microliters of 5M NaCl solution. Small magnetic stirring bar was placed to the drug suspension followed by immersion of the pH electrode. Slow addition of 1N NaOH solution began with careful pH monitoring. NaOH was added until pH reached the 7.2-7.4 range at which point the drug was completely dissolved. pH electrode and magnetic stirring bar were removed, and the volume was adjusted to 5.5 ml. The stock was aliquoted and stored at −20° C. Working DPOFA dilutions were made in Ringer's solution or in PBS.
# An Ussing-type chamber was used to assess water transport across tissues preparations. Three hours before the experiment two Ussing-like chambers were assembled and filled with phosphate buffered saline. The cambers were placed on the thermo-jacketed stand to pre-warm the chambers to the 37° C.
# Bovine eyes were obtained from the local abattoir and placed to the cold Ringer's solution containing 120 mM NaCl, 5 mM KCl, 23 mM NaHCO3, 1 mM MgCl2, 1.8 mM CaCl2, 2.0 mM taurine, and 10 mM glucose pH 7.4. Eyes were transferred to the lab within 2-3 hours after enucleation and rinsed repeatedly in Ringer's solution. Excessive muscle and connective tissue were trimmed at room temperature. The enucleated eye was dissected at pars plana, and the anterior portion was discarded along with the vitreous. If sensory retina detached during the removal of vitreous, the eye was considered unusable and was discarded. After the removal of vitreous, the posterior portion of the eye with the attached neuroretina was visually examined to locate the area not containing large blood vessels in the sclera. Using a size 13 brass cork bore, the selected area was punched through using a hammer.
# The resulting tissue “button” was placed in a Petri dish containing Ringer's solution. The neuroretina was carefully peeled off and discarded. The flat circular sheet of the RPE-choroid tissue was carefully removed with forceps, placed on the flat spoon and transported to the Petri dish where the “basal” round window of the Ussing-type chamber (containing metal mesh) was placed and covered with Ringer's solution. The choroid-RPE circular sheet was placed on the metal mesh of the“basal” window with choroid side down. The RPE side of the RPE-choroid sheet was covered with the nylon mesh shown, followed by clipping with the “apical” portion of the Ussing-type chamber window.
# The pre-warmed Ussing-like chambers were removed from the thermo-jacketed stand, freed from the PBS solution, and disassembled. […]
# Pre-warmed Ringer's solution was added first to the apical side and then to the basal side of the chamber. The temperature within the chambers was checked and if it reached 35° C., the electrical resistance was measured using the modified electrode and the DVC-1000 Voltage/Current Clamp instrument (WPI, Inc.). […]
# glial cell = details: central nervous system; reported; cited from earlier work
compound,measurement,setting,value
"CCC[C@]12CCC(=O)C=C1c1c(cc(OCC(=O)O)c(Cl)c1Cl)C2 [DPOFA, [(R)-(+)-(5,6-dichloro 2,3,9,9a-tetrahydro 3-oxo-9a-propyl-1H-fluoren-7-yl)oxy]acetic acid]",stimulation of water transport across the bovine RPE-choroid complex,"[1]; ex vivo, apical to basal side, overall result",stimulated water transport
same,water transport at 6 μM compared with the higher concentrations,"[1]; first experiment, FIG. 1, 6 μM vs 20 μM and 60 μM",more significant transport of water than 20 μM and 60 μM
same,transport of water from apical to basal side (upward shift of basal capillary meniscus),"[1]; first experiment, FIG. 1, 6 μM, 20 μM, 60 μM DPOFA",stimulated significant increase in transport of water
same,movement of water from apical to basal side,"[1]; second experiment, FIG. 2, 6 μM, 20 μM, 60 μM DPOFA",increased the movement of water
same,concentration giving the strongest stimulation of water transport,"[1]; second experiment, FIG. 2, 6, 20, 60 μM tested",6 µM
same,inhibition of glial cell swelling and reactive gliosis,glial cell,effective inhibitor of glial cell swelling and reactive gliosis

# — patent publication US20130189246A1, “TREATMENT OF OPHTHALMIC CONDITIONS WITH FLUORENONE DERIVATIVES” (The Trustees of Columbia University in the City of New York, priority 2009, published 2013)
